Several values for one entry are separate records, joined by “and”; a condition that tells them apart may be missing. Equal entries are not always repeated.
Columns and labels:
Assay in all cases: biochemical
Format in all cases: binding
[1] = molecular target: SfurOBP1 (Sogatella furcifera, UniProt V5T8N5); details: for Fluorescence competitive binding assay, fluorescence intensity: OBP1, three replicate columns
In short: (§1)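 Fluorescence competitive binding with 1-NPN as reporter: 2.0 µM protein and 2.0 µM 1-NPN in 50 mM Tris-HCl pH 7.4, odorant added at 2–20 µM final. Excitation 337 nm, emission 390–490 nm read 2 min after addition, triplicates. Ki = IC50/(1 + [1-NPN]/K1-NPN).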

[2] = molecular target: SfurOBP3 (Sogatella furcifera, UniProt V5T818); details: for Fluorescence competitive binding assay, fluorescence intensity: OBP3, three replicate columns
In short: as §1

[3] = molecular target: SfurOBP2 (Sogatella furcifera, UniProt V5T759)
In short: as §1

[4] = molecular target: SfurOBP11 (Sogatella furcifera, UniProt V5T6E3)
In short: as §1

Sequence of SfurOBP3 (V5T818 entry or part of it): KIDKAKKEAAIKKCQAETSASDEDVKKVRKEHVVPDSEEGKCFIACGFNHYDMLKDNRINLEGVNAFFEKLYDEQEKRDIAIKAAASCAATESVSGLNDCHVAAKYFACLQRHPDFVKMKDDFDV
Sequence of SfurOBP2 (V5T759 entry or part of it): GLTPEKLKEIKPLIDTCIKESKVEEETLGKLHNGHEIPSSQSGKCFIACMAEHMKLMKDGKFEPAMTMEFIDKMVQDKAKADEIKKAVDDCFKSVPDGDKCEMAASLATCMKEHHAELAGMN
Sequence of SfurOBP11 (V5T6E3 entry or part of it): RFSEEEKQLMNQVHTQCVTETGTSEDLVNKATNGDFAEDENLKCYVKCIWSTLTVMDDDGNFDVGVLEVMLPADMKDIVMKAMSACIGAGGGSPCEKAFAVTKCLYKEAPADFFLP
Sequence of SfurOBP1 (V5T8N5 entry or part of it): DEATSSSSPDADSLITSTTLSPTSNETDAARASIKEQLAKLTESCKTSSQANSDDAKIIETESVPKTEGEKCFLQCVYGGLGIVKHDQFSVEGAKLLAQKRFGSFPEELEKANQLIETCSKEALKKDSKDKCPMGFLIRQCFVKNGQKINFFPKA

CCCCCCCCCCOCCCCCCCCCC [didecyl ether]
Fluorescence competitive binding assay, fluorescence intensity ([1]; ligand concentration 2 (μM)): 13439 and 10181 and 10387
Fluorescence competitive binding assay, fluorescence intensity ([1]; ligand concentration 4 (μM)): 12999 and 14054 and 13054
Fluorescence competitive binding assay, fluorescence intensity ([1]; ligand concentration 6 (μM)): 17843 and 17435 and 18755
Fluorescence competitive binding assay, fluorescence intensity ([1]; ligand concentration 8 (μM)): 20344 and 21618 and 19391
Fluorescence competitive binding assay, fluorescence intensity ([1]; ligand concentration 10 (μM)): 25143 and 20920 and 29597
Fluorescence competitive binding assay, fluorescence intensity ([1]; ligand concentration 12 (μM)): 25050 and 26471 and 24718
Fluorescence competitive binding assay, fluorescence intensity ([1]; ligand concentration 14 (μM)): 31790 and 28307 and 28799
Fluorescence competitive binding assay, fluorescence intensity ([1]; ligand concentration 16 (μM)): 25660 and 26360 and 27874
Fluorescence competitive binding assay, fluorescence intensity ([1]; ligand concentration 18 (μM)): 34663 and 37908 and 36994
Fluorescence competitive binding assay, fluorescence intensity ([1]; ligand concentration 20 (μM)): 37718 and 33824 and 31648
IC50 ([1]; SfurOBP1, protein and 1-NPN both 2.0 µM, competitor 2-20 µM, read-out: IC50): > 20 µM
Fluorescence competitive binding assay, fluorescence intensity ([2]; ligand concentration 2): 87733 and 85025 and 77897
Fluorescence competitive binding assay, fluorescence intensity ([2]; ligand concentration 4): 115777 and 106868 and 104692
Fluorescence competitive binding assay, fluorescence intensity ([2]; ligand concentration 6): 125530 and 125631 and 129726
Fluorescence competitive binding assay, fluorescence intensity ([2]; ligand concentration 8): 107521 and 145667 and 147221
Fluorescence competitive binding assay, fluorescence intensity ([2]; ligand concentration 10): 173091 and 157740 and 127122
Fluorescence competitive binding assay, fluorescence intensity ([2]; ligand concentration 12): 158103 and 182941 and 142916
Fluorescence competitive binding assay, fluorescence intensity ([2]; ligand concentration 14): 176147 and 111843 and 160442
Fluorescence competitive binding assay, fluorescence intensity ([2]; ligand concentration 16): 151941 and 158990 and 157774
Fluorescence competitive binding assay, fluorescence intensity ([2]; ligand concentration 18): 173084 and 168625 and 167342
Fluorescence competitive binding assay, fluorescence intensity ([2]; ligand concentration 20): 193319 and 125518 and 175321
IC50 ([2]; SfurOBP3, protein and 1-NPN both 2.0 µM, competitor 2-20 µM, read-out: IC50): > 20 µM
IC50 ([3]; SfurOBP2, protein and 1-NPN both 2.0 µM, competitor 2-20 µM, read-out: IC50): > 20 µM
Fluorescence competitive binding assay, OBP2 (raw fluorescence reading) ([3]; ligand concentration 2 (unit not given), replicate column 1 of 3): 18915
Fluorescence competitive binding assay, OBP2 (raw fluorescence reading) ([3]; ligand concentration 2 (unit not given), replicate column 2 of 3): 20597
Fluorescence competitive binding assay, OBP2 (raw fluorescence reading) ([3]; ligand concentration 2 (unit not given), replicate column 3 of 3): 23440
Fluorescence competitive binding assay, OBP2 (raw fluorescence reading) ([3]; ligand concentration 4 (unit not given), replicate column 1 of 3): 24181
Fluorescence competitive binding assay, OBP2 (raw fluorescence reading) ([3]; ligand concentration 4 (unit not given), replicate column 2 of 3): 28014
Fluorescence competitive binding assay, OBP2 (raw fluorescence reading) ([3]; ligand concentration 4 (unit not given), replicate column 3 of 3): 25410
Fluorescence competitive binding assay, OBP2 (raw fluorescence reading) ([3]; ligand concentration 6 (unit not given), replicate column 1 of 3): 34688
Fluorescence competitive binding assay, OBP2 (raw fluorescence reading) ([3]; ligand concentration 6 (unit not given), replicate column 2 of 3): 31794
Fluorescence competitive binding assay, OBP2 (raw fluorescence reading) ([3]; ligand concentration 6 (unit not given), replicate column 3 of 3): 34987
Fluorescence competitive binding assay, OBP2 (raw fluorescence reading) ([3]; ligand concentration 8 (unit not given), replicate column 1 of 3): 33082
Fluorescence competitive binding assay, OBP2 (raw fluorescence reading) ([3]; ligand concentration 8 (unit not given), replicate column 2 of 3): 40303
Fluorescence competitive binding assay, OBP2 (raw fluorescence reading) ([3]; ligand concentration 8 (unit not given), replicate column 3 of 3): 37763
Fluorescence competitive binding assay, OBP2 (raw fluorescence reading) ([3]; ligand concentration 10 (unit not given), replicate column 1 of 3): 37285
Fluorescence competitive binding assay, OBP2 (raw fluorescence reading) ([3]; ligand concentration 10 (unit not given), replicate column 2 of 3): 44653
Fluorescence competitive binding assay, OBP2 (raw fluorescence reading) ([3]; ligand concentration 10 (unit not given), replicate column 3 of 3): 45169
Fluorescence competitive binding assay, OBP2 (raw fluorescence reading) ([3]; ligand concentration 12 (unit not given), replicate column 1 of 3): 40538
Fluorescence competitive binding assay, OBP2 (raw fluorescence reading) ([3]; ligand concentration 12 (unit not given), replicate column 2 of 3): 46457
Fluorescence competitive binding assay, OBP2 (raw fluorescence reading) ([3]; ligand concentration 12 (unit not given), replicate column 3 of 3): 42564
Fluorescence competitive binding assay, OBP2 (raw fluorescence reading) ([3]; ligand concentration 14 (unit not given), replicate column 1 of 3): 47395
Fluorescence competitive binding assay, OBP2 (raw fluorescence reading) ([3]; ligand concentration 14 (unit not given), replicate column 2 of 3): 46610
Fluorescence competitive binding assay, OBP2 (raw fluorescence reading) ([3]; ligand concentration 14 (unit not given), replicate column 3 of 3): 49253
Fluorescence competitive binding assay, OBP2 (raw fluorescence reading) ([3]; ligand concentration 16 (unit not given), replicate column 1 of 3): 41133
Fluorescence competitive binding assay, OBP2 (raw fluorescence reading) ([3]; ligand concentration 16 (unit not given), replicate column 2 of 3): 50168
Fluorescence competitive binding assay, OBP2 (raw fluorescence reading) ([3]; ligand concentration 16 (unit not given), replicate column 3 of 3): 50416
Fluorescence competitive binding assay, OBP2 (raw fluorescence reading) ([3]; ligand concentration 18 (unit not given), replicate column 1 of 3): 50240
Fluorescence competitive binding assay, OBP2 (raw fluorescence reading) ([3]; ligand concentration 18 (unit not given), replicate column 2 of 3): 52962
Fluorescence competitive binding assay, OBP2 (raw fluorescence reading) ([3]; ligand concentration 18 (unit not given), replicate column 3 of 3): 54896
Fluorescence competitive binding assay, OBP2 (raw fluorescence reading) ([3]; ligand concentration 20 (unit not given), replicate column 1 of 3): 51479
Fluorescence competitive binding assay, OBP2 (raw fluorescence reading) ([3]; ligand concentration 20 (unit not given), replicate column 2 of 3): 53666
Fluorescence competitive binding assay, OBP2 (raw fluorescence reading) ([3]; ligand concentration 20 (unit not given), replicate column 3 of 3): 47381
IC50 ([4]; SfurOBP11, protein and 1-NPN both 2.0 µM, competitor 2-20 µM, read-out: IC50): > 20 µM
Fluorescence intensity, fluorescence competitive binding assay, OBP11 ([4]; ligand concentration 2, replicate 1): 43164
Fluorescence intensity, fluorescence competitive binding assay, OBP11 ([4]; ligand concentration 2, replicate 2): 38605
Fluorescence intensity, fluorescence competitive binding assay, OBP11 ([4]; ligand concentration 2, replicate 3): 37407
Fluorescence intensity, fluorescence competitive binding assay, OBP11 ([4]; ligand concentration 4, replicate 1): 45394
Fluorescence intensity, fluorescence competitive binding assay, OBP11 ([4]; ligand concentration 4, replicate 2): 44519
Fluorescence intensity, fluorescence competitive binding assay, OBP11 ([4]; ligand concentration 4, replicate 3): 44324
Fluorescence intensity, fluorescence competitive binding assay, OBP11 ([4]; ligand concentration 6, replicate 1): 52018
Fluorescence intensity, fluorescence competitive binding assay, OBP11 ([4]; ligand concentration 6, replicate 2): 51596
Fluorescence intensity, fluorescence competitive binding assay, OBP11 ([4]; ligand concentration 6, replicate 3): 52439
Fluorescence intensity, fluorescence competitive binding assay, OBP11 ([4]; ligand concentration 8, replicate 1): 52547
Fluorescence intensity, fluorescence competitive binding assay, OBP11 ([4]; ligand concentration 8, replicate 2): 53605
Fluorescence intensity, fluorescence competitive binding assay, OBP11 ([4]; ligand concentration 8, replicate 3): 57390
Fluorescence intensity, fluorescence competitive binding assay, OBP11 ([4]; ligand concentration 10, replicate 1): 53386
Fluorescence intensity, fluorescence competitive binding assay, OBP11 ([4]; ligand concentration 10, replicate 2): 50348
Fluorescence intensity, fluorescence competitive binding assay, OBP11 ([4]; ligand concentration 10, replicate 3): 61467
Fluorescence intensity, fluorescence competitive binding assay, OBP11 ([4]; ligand concentration 12, replicate 1): 60450
Fluorescence intensity, fluorescence competitive binding assay, OBP11 ([4]; ligand concentration 12, replicate 2): 60637
Fluorescence intensity, fluorescence competitive binding assay, OBP11 ([4]; ligand concentration 12, replicate 3): 60823
Fluorescence intensity, fluorescence competitive binding assay, OBP11 ([4]; ligand concentration 14, replicate 1): 64649
Fluorescence intensity, fluorescence competitive binding assay, OBP11 ([4]; ligand concentration 14, replicate 2): 70642
Fluorescence intensity, fluorescence competitive binding assay, OBP11 ([4]; ligand concentration 14, replicate 3): 65311
Fluorescence intensity, fluorescence competitive binding assay, OBP11 ([4]; ligand concentration 16, replicate 1): 64270
Fluorescence intensity, fluorescence competitive binding assay, OBP11 ([4]; ligand concentration 16, replicate 2): 67002
Fluorescence intensity, fluorescence competitive binding assay, OBP11 ([4]; ligand concentration 16, replicate 3): 65982
Fluorescence intensity, fluorescence competitive binding assay, OBP11 ([4]; ligand concentration 18, replicate 1): 78706
Fluorescence intensity, fluorescence competitive binding assay, OBP11 ([4]; ligand concentration 18, replicate 2): 81987
Fluorescence intensity, fluorescence competitive binding assay, OBP11 ([4]; ligand concentration 18, replicate 3): 75370
Fluorescence intensity, fluorescence competitive binding assay, OBP11 ([4]; ligand concentration 20, replicate 1): 97463
Fluorescence intensity, fluorescence competitive binding assay, OBP11 ([4]; ligand concentration 20, replicate 2): 75326
Fluorescence intensity, fluorescence competitive binding assay, OBP11 ([4]; ligand concentration 20, replicate 3): 72923

— paper PMC6409085, “Three odorant-binding proteins are involved in the behavioral response of Sogatella furcifera to rice plant volatiles” (PeerJ, 2019)
